The values below come from paper PMC8119899, “A Single Mutation in the Outer Lipid-Facing Helix of a Pentameric Ligand-Gated Ion Channel Affects Channel Function Through a Radially-Propagating Mechanism” (Frontiers in Molecular Biosciences, 2021).

Molecules are shown by their SMILES. Numbering of substitutions follows the chain as printed.

What all share (assay type): cell-based
One assay concerns the target T1, 5-HT3A receptor F242A (Mus musculus, UniProt P23979, F269A).
T1 construct: expressed in transfected cells; host or cells: HEK293
T1 sequence (P23979 24-489 F269A): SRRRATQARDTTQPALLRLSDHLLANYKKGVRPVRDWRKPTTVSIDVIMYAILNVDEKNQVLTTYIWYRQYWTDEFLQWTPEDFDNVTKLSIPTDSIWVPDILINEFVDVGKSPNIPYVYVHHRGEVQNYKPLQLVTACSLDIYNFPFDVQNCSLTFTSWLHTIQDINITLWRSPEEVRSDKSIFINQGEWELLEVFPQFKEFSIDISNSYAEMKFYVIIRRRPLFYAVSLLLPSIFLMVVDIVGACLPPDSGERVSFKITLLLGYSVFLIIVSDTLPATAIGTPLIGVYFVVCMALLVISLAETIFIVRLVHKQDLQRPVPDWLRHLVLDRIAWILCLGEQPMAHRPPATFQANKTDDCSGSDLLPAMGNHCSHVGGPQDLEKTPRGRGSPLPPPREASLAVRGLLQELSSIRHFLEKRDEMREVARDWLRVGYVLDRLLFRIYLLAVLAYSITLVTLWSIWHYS
The experiment in a line: FlexStation membrane potential dye, 5-HT response, F242A receptor in HEK293 cells. The following applies: mean and SEM, n ≥ 3. On the procedure: (§1) The mouse 5-HT3A cDNA (Q6J1J7) in pcDNA3.1 (for HEK cell transfection) or pGEMHE (for RNA production) was modified by QuikChange site-directed mutagenesis (Agilent Technologies) to create point mutants (verified by sequencing).
(§2) Human embryonic kidney (HEK) 293 cells were maintained at 37 °C at 5% CO2 in a humidified atmosphere, in Dulbecco's Modified Eagle's Medium/Nutrient Mix F12 (1:1) (Invitrogen, Paisley, UK) with GlutaMAX^TM and 10% fetal bovine serum (GE Healthcare) (DMEM/FBS) and passaged when confluent.
(§3) As described previously (Price and Lummis, [2005]) cells were incubated for 45 min with fluorescent membrane potential-sensitive dye (Membrane Potential Blue kit, Molecular Devices) diluted in Flex buffer (10 mM HEPES, 115 mM NaCl, 1 mM KCl, 1 mM CaCl2, 1 mM MgCl2, and 10 mM glucose, pH 7.4), and subsequently assayed at room temperature for 180 s, with readings every 2 s. […] (log of the concentration of ligand), a is the minimum response, b is the maximum response, and nH is the Hill slope.

The target in the next assay is T2, 5-HT3A receptor K255L (Mus musculus, UniProt P23979, K282L).
T2 construct: expressed in transfected cells
T2 sequence (P23979 24-489 K282L): T1 sequence (P23979 24-489 F269A) with A246F, K259L
The assay can be described thus: FlexStation membrane potential dye, 5-HT response, K255L receptor in HEK293 cells. More on the design: key: Mutants that did not respond in the functional assay are marked as non functional (NF). How it is done: as §1
(§4) Human embryonic kidney (HEK) 293 cells were maintained at 37 °C at 5% CO2 in a humidified atmosphere, in Dulbecco's Modified Eagle's Medium/Nutrient Mix F12 (1:1) (Invitrogen, Paisley, UK) with GlutaMAX^TM and 10% fetal bovine serum (GE Healthcare) (DMEM/FBS) and passaged when confluent. Five micrograms of WT or mutant 5-HT3A DNA and 30 μl polyethyleneamine (Polysciences) incubated for 10 min in 1 mL DMEM was added to 60% confluent HEK293 cells for transfection, and cells grown for 2 days before assays.
as §3

The next assay concerns the target T3, 5-HT3A receptor D238A (Mus musculus, UniProt P23979, D265A).
T3 sequence (P23979 24-489 D265A): T1 sequence (P23979 24-489 F269A) with D242A, A246F
The experiment in a line: FlexStation membrane potential dye, 5-HT response, D238A receptor in HEK293 cells. Details: expressed in transfected cells; host or cells: HEK293; key to pEC50: Mutants that did not respond in the functional assay are marked as non functional (NF). On the procedure: as §1, §4, §3

Another assay addresses T4, 5-HT3A receptor K255A (Mus musculus, UniProt P23979, K282A).
T4 sequence (P23979 24-489 K282A): T1 sequence (P23979 24-489 F269A) with A246F, K259A
The assay can be described thus: FlexStation membrane potential dye, 5-HT response, K255A receptor in HEK293 cells. Details: expressed in transfected cells; host or cells: HEK293. The following applies: mean and SEM, n ≥ 3. How it is done:
as §1, §2, §3

In the case of `NCCc1c[nH]c2ccc(O)cc12` [5-HT], the results for the nH on 5-HT3A receptor F242A and on 5-HT3A receptor K255A were 3.8 ± 0.8 and 2.6± 0.1, respectively. Also, the pEC50 result at 5-HT3A receptor K255L and at 5-HT3A receptor D238A was “NF” throughout. Further, the “response to application of 5-HT” value on 5-HT3A receptor D238A was “Neither Y441A nor D238A responded”.
